From patent US20080262037A1, “Piperidine Derivatives for the Treatment of Chemokine Mediated Disease” (ASTRAZENECA AB, priority 2004, published 2008)
Counter-ions that a name gives are not always drawn.

target: T1, human H1 receptor (Homo sapiens, UniProt P35367); test: Histamine H1 receptor binding, competition displacement of [3H]-pyrilamine; settings: displacement of 1 nM [3H]-pyrilamine; membranes from recombinant CHO-K1 cells expressing the human H1 receptor; 1 hour at room temperature; read-out: H1 pKi/[1328_S] (converted)
T1 construct: purchased Euroscreen SA, Brussels, Belgium ES-390-M; host or cells: CHO-K1 cells (membranes)
T1 sequence (P35367 whole entry): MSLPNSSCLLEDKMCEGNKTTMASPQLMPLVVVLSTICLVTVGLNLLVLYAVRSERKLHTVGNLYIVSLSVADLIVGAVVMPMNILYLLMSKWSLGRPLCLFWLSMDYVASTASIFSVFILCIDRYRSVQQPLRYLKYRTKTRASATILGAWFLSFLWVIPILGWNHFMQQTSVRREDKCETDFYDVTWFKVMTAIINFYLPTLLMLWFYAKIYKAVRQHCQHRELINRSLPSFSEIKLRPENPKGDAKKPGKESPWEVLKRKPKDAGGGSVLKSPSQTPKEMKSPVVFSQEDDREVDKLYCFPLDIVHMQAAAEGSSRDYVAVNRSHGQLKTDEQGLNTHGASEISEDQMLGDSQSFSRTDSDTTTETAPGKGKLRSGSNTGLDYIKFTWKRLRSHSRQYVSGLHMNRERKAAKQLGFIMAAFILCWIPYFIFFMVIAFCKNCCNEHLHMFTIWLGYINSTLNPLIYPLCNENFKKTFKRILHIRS

| Ki | Compound |
| --- | --- |
| 12.6 nM | COc1ccc(CC(=O)O)cc1N1CCC(CN2CCC(Oc3ccc(Cl)c(Cl)c3)CC2)CC1 [Example 23, [3-(4-{[4-(3,4-Dichlorophenoxy)piperidin-1-yl]methyl}piperidin-1-yl)-4-methoxyphenyl]acetic acid] |
| 31.6 nM | CC(C)(Oc1ccccc1N1CCC(CN2CCC(Oc3ccc(Cl)c(Cl)c3)CC2)CC1)C(=O)O [Example 27, 2-[2-(4-{[4-(3,4-Dichlorophenoxy)piperidin-1-yl]methyl}piperidin-1-yl)phenoxy]-2-methylpropanoic acid] |
| 10 nM | C[C@@H](Oc1ccccc1N1CCC(CN2CCC(Oc3ccc(Cl)c(Cl)c3)CC2)CC1)C(=O)O [Example 28, (2R)-2-[2-(4-{[4-(3,4-Dichlorophenoxy)piperidin-1-yl]methyl}piperidin-1-yl)phenoxy]propanoic acid] |
| 12.6 nM | C[C@H](Oc1ccccc1N1CCC(CN2CCC(Oc3ccc(Cl)c(Cl)c3)CC2)CC1)C(=O)O [Example 29, (2S)-2-[2-(4-{[4-(3,4-Dichlorophenoxy)piperidin-1-yl]methyl}piperidin-1-yl)phenoxy]propanoic acid] |
| 12.6 nM | C[C@@H](Oc1cccc(N2CCC(CN3CCC(Oc4ccc(Cl)c(Cl)c4)CC3)CC2)c1)C(=O)O [Example 30, (2R)-2-[3-(4-{[4-(3,4-Dichlorophenoxy)piperidin-1-yl]methyl}piperidin-1-yl)phenoxy]propanoic acid] |
| 12.6 nM | Cc1c(OC2CCN(CC3CCN(c4ccc(CC(=O)O)cc4)CC3)CC2)ccc(Cl)c1Cl [Example 33, [4-(4-{[4-(3,4-Dichloro-2-methylphenoxy)piperidin-1-yl]methyl}piperidin-1-yl)phenyl]acetic acid] |
| 398 nM | Cc1c(OC2CCN(CC3CCN(c4cccc(O[C@H](C)C(=O)O)c4)CC3)CC2)ccc(C#N)c1Cl [Example 37, (2R)-2-[3-(4-{[4-(3-Chloro-4-cyano-2-methylphenoxy)piperidin-1-yl]methyl}piperidin-1-yl)phenoxy]propanoic acid] |
| 2 nM | O=C(O)COc1ccc(Cl)cc1N1CCC(CN2CCC(Oc3ccc(Cl)c(Cl)c3)CC2)CC1 [Example 39, (4-Chloro-2-{4-[4-(3,4-dichloro-phenoxy)-piperidin-1-ylmethyl]-piperidin-1-yl}-phenoxy)-acetic acid hydrochloride] |
| 3.16 nM | O=C(O)COc1c(Cl)cccc1N1CCC(CN2CCC(Oc3ccc(Cl)c(Cl)c3)CC2)CC1 [Example 40, (2-chloro-6-{4-[4-(3,4-dichloro-phenoxy)-piperidin-1-ylmethyl]-piperidin-1-yl}-phenoxy)-acetic acid] |
| 20 nM | Cc1c(OC2CCN(CC3CCN(c4cccc(O[C@@H](C)C(=O)O)c4)CC3)CC2)ccc(Cl)c1Cl [Example 44, (2S)-2-[3-(4-{[4-(3,4-dichloro-2-methylphenoxy)piperidin-1-yl]methyl}piperidin-1-yl)phenoxy]propanoic acid] |
